Patent publication US8338420B1, “Treatment of Parkinson's disease and enhancement of dopamine signal using PDE 10 inhibitor” (Mitsubishi Tanabe Pharma Corporation, priority 2002, dated 2012)

Assays:
PDE2 = target: T1, PDE2 (Bos taurus, UniProt P14099); assay: PDE assay, PDE2 enzyme solution from bovine adrenal gland; assay type: biochemical, Japanese Black Cattle
T1 construct: tissue Tokyo Shibaura Zoki; host or cells: bovine adrenal gland, soluble fraction, ion-exchange fractions
T1 sequence (P14099 1-921): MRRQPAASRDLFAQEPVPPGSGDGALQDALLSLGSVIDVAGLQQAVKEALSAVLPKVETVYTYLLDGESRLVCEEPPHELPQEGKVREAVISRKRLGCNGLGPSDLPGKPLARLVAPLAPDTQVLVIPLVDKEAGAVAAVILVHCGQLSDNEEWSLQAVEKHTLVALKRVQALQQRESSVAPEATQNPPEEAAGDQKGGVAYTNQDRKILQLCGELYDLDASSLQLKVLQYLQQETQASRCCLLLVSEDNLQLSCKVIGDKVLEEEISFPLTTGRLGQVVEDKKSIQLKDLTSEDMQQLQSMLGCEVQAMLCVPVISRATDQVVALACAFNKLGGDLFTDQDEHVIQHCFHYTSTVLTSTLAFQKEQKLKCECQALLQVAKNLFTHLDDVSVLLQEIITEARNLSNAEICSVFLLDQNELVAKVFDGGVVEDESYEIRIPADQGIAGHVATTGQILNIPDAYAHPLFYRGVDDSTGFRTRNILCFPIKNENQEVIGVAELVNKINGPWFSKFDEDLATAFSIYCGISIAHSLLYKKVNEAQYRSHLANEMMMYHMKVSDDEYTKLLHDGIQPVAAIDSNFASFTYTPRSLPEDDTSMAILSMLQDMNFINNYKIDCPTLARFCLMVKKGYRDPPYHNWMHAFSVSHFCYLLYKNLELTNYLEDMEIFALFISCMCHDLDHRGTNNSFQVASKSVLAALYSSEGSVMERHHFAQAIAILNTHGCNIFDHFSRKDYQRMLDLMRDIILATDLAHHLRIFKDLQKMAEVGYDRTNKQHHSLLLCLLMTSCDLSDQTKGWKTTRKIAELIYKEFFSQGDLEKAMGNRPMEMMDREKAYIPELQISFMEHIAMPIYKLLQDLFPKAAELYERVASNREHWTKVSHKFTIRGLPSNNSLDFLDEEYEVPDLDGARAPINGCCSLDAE
Procedure: One adrenal gland of Japanese Black Cattle, purchased from Tokyo Shibaura Zoki, co., Ltd. was washed with 100 ml of ice-cold saline (0.9% sodium chloride) twice. Subsequently, the tissues were cut into about 1 gram, and it was frozen by liquid nitrogen. To about 2 g of this tissue sample was added 10 ml of an ice-cold homogenization buffer II (25 mM Tris-HCl, pH 7.5, 4 mM magnesium chloride, 0.5 mM EGTA, 2 mM dithiothreitol, 4 mM benzamidine, 0.1 mM phenylmethylsulfonyl fluoride), and the homogenate that was homogenized by Polytron homogenizer for 3 minutes was centrifuged at 8000 rpm, at 4° C. for 20 minutes, and the obtained supernatant was further centrifuged by an ultracentrifuge at 50000 rpm, at 4° C. for 60 minutes. The resultant supernatant was stored at 4° C.
(§1) This supernatant was applied to chromatography under the FPLC system, in the same manner as in Example 1 (1) above. […]
Subsequently, the eluted fractions were used as an enzyme solution for PDE assay, and cGMP-hydrolyzing activity was measured. Or, cAMP-hydrolyzing activity was measured for respective fractions, in the presence or absence of unlabeled cGMP. […]

PDE1 = assay: PDE assay, PDE1 enzyme solution from rat ventricle; assay type: biochemical, SD rat; conditions: E4021 100 nM
Procedure: Ventricle was excised from SD rat anesthetized with sodium pentobarbital (Nihon SLC, about 300 g), and washed with 100 ml of ice-cold saline 3 times. After the tissues were cut in approximately 1 g, it was frozen by liquid nitrogen, and stored at −80° C.
To about 5 g of this tissue sample was added 16 ml of an ice-cold homogenization buffer I, and the resultant mixture was homogenized by Polytron homogenizer for 3 minutes. The homogenate was centrifuged at 8000 rpm, at 4° C. for 20 minutes, and the obtained supernatant was further centrifuged by an ultracentrifuge at 50000 rpm, at 4° C. for 60 minutes. The resultant supernatant was stored at 4° C. […]
Subsequently, the eluted fractions were used as an enzyme solution for PDE assay. […] (final concentration of 1 mM) or calcium chloride (final concentration of 2 mM) and calmodulin (40 unit s/ml), and cGMP-hydrolyzing activity was measured.
For these PDE1 containing fractions, cGMP hydrolyzing activities were analyzed in the presence of E4021 (100 nM), PDE5 specific inhibitor, it was shown that the cGMP-hydrolyzing activities in these fractions were not inhibited by E4021. […]
Further, in the presence or absence of unlabeled cGMP, cAMP-PDE activities were measured for each of the fractions. […]
Still further, in the presence of rolipram (10 μm), the PDE4 specific inhibitor, cAMP hydrolyzing activities were measured for each of the fractions. […]

PDE3 = target: T2, PDE3 (Canis lupus familiaris, UniProt A0A8I3NYE0); assay: PDE assay, PDE3 enzyme solution from dog ventricle; assay type: biochemical, mixed-breed dog
T2 sequence (A0A8I3NYE0 1-1135): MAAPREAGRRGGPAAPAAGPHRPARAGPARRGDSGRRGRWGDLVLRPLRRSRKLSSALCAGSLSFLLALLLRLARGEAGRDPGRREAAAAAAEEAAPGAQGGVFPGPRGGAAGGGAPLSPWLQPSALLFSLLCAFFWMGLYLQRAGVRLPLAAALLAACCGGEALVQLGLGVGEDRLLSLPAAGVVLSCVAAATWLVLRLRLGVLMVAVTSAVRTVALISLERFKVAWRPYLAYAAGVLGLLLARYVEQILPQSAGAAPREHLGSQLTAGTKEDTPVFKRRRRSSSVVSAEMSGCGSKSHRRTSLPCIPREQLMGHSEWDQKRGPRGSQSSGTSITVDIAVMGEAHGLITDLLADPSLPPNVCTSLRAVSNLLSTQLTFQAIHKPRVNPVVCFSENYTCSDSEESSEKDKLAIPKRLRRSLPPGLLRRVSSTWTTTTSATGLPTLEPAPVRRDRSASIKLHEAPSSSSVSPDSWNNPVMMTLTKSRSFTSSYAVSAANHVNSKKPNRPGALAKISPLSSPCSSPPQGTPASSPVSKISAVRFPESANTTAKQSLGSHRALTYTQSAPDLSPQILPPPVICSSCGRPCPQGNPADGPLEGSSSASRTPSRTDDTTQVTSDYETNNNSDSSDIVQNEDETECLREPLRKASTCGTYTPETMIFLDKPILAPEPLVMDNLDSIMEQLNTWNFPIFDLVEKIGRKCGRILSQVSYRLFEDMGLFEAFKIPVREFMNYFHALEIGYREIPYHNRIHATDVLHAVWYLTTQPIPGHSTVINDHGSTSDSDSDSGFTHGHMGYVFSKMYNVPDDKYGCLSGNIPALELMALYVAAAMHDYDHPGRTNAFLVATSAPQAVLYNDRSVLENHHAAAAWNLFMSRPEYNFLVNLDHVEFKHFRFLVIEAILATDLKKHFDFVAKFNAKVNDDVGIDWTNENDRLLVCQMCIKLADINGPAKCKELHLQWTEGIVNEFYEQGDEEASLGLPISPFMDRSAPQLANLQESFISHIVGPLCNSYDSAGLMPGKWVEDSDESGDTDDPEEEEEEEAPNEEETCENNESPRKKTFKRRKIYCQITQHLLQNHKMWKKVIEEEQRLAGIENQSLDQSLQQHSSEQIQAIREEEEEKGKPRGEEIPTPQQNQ
Procedure: Apex portion of ventricle of mixed-breed dog (Oriental Yeast) was excised, and washed with 500 ml of ice-cold saline three times. Subsequently, the tissues were cut into about 3 g, and it was frozen by liquid nitrogen, and stored at −80° C. To about 1 g of this tissue sample was added 10 ml of an ice-cold homogenization buffer II, and the resultant mixture was homogenized by Polytron homogenizer for 3 minutes. The homogenate was centrifuged at 8000 rpm, at 4° C. for 20 minutes, and the obtained supernatant was further centrifuged by an ultracentrifuge at 40000 rpm, at 4° C. for 60 minutes. The resultant supernatant was stored at 4° C.
as §1
Subsequently, the eluted fractions were used as an enzyme solution for PDE assay, and cGMP-hydrolyzing activity was measured. Further, cAMP-hydrolyzing activity was measured for respective fractions, in the presence or absence of unlabeled cGMP. […]

PDE4 = assay: PDE assay, PDE4 enzyme solution from dog lung; assay type: biochemical, mixed-breed dog
Procedure: These fractions were collected and glycerol was added thereto to become 50%, and the mixture was stored at −20° C.

PDE5 = target: T3, PDE5 (Canis lupus familiaris, UniProt O77746); assay: PDE assay, PDE5 enzyme solution from canine lung; assay type: biochemical
T3 construct: These were used as a PDE5 enzyme solution for PDE assay; tissue Oriental Yeast (animals); host or cells: canine lung, soluble fraction, DEAE Sepharose fractions
Procedure: In the same manner as in (1-4) above, the supernatant obtained from the homogenate of canine lung tissue was applied to chromatography under FLPC system, to collect eluted fractions of 2 ml each.
Subsequently, the eluted fractions were used as an enzyme solution for PDE assay, and cGMP-hydrolyzing activity was measured for respective fractions, in the presence or absence of E4021, the PDE5 specific inhibitor.
Further, for examining contamination of PDE1, which is adjacently eluted, cGMP-hydrolyzing PDE activity of the respective fractions were measured in the same assay buffer containing EGTA (final concentration of 1 mM) [or calcium chloride (final concentration of 2 mM) and calmodulin (40 units/ml)].
These fractions were collected and glycerol was added thereto to become 50%, and the mixture was stored at −20° C. These were used as a PDE5 enzyme solution for PDE assay.

CCCCCC[C@@H]([C@@H](C)O)n1cnc2c(N)ncnc21 (racemic) [EHNA, erythro-9-(2-hydroxy-3-nonyl)adenine, reference compound]
PDE activity of PDE2 enzyme solution in the presence of inhibitor (PDE2): inhibited

O=C(O)C1CCN(c2nc(NCc3ccc4c(c3)OCO4)c3cc(Cl)ccc3n2)CC1 [Compound E4021, reference compound]
cGMP-hydrolyzing activity of PDE1 containing fractions in the presence of inhibitor (PDE1): not inhibited

Cc1[nH]c(=O)c(C#N)cc1-c1ccncc1 [milrinone]
PDE activity of PDE3 enzyme solution in the presence of inhibitor (PDE3): inhibited

COc1ccc(C2CNC(=O)C2)cc1OC1CCCC1 (centres unmarked) [rolipram, reference compound]
PDE activity of PDE4 enzyme solution in the presence of inhibitor (PDE4): inhibited

CCCc1nn(C)c2c(=O)[nH]c(-c3cc(S(=O)(=O)N4CCN(C)CC4)ccc3OCC)nc12 [sildenafil, reference compound]
PDE activity of PDE5 enzyme solution in the presence of inhibitor (PDE5): inhibited
